Tests used:
[1] = system: LPS induced TNF-α release from human monocytes; assay: LPS induced TNF-α release from human monocytes; format: cell-based; details: Monocyte
Experimental: 6,7-Dihydro-2-(2,6-diisopropylphenoxy)-9,10-dimethoxy-4H-pyrimido-[6,1-a]isoquinolin-4-one (compound of Example 2) was tested for effects on LPS induced TNF-α release from human monocytes.

[2] = system: guinea-pig tracheal rings; assay: Organ bath experiments, guinea-pig tracheal rings, electrical field stimulation; details: final concentration 10 μM, n=1
Experimental: Guinea-pig tracheal rings were suspended in organ baths under 1 g tension between two electrodes and subjected to electrical field stimulation (3 Hz, 0.1 ms duration and 20V (approx 400 mAmps) generated every 100 sec by means of physiological square wave-stimulator. The compounds of Examples 1, 2 and 8 were dissolved in DMSO containing Tween 80 (10%) and distilled water (0.01M), which were then added to the organ bath to give a final concentration of 10 μM.

[3] = system: human mononuclear cells stimulated by PHA; assay: Proliferation of human mononuclear cells stimulated by PHA ([3H]-thymidine); format: cell-based; details: PHA 2 μg/ml, n=6, read-out: IC50 against proliferation of human mononuclear cells stimulated with PHA
Experimental: Normal healthy volunteers underwent phlebotomy and 25 ml of blood was collected. Mononuclear cells were separated and purified according to the method of Banner et al. (Banner et al. Br. J. Pharmacol. 116 3169-3174 (1995)). Human peripheral mononuclear cells (100,000 per well) were stimulated for 24 h with phytohaemagglutinin (PHA, 2 μg/ml) in the absence or presence of the compounds of Examples 1, 2 and 8 (0.001-100 μM) at 37° C. in a 95% air, 5% CO2 atmosphere. Twenty four hours later, [^3H]-thymidine (0.1 μCi) was added to each well and the cells were incubated for a further 24 h period. Cells were then harvested onto glass fibre filters using a cell harvester (ICN Flow, Buckinghamshire) and counted in a scintillation counter.

[4] = system: guinea-pig isolated trachea; assay: Superfusion of guinea-pig tracheal rings, contraction to electrical field stimulation; details: for inhibition of contractile responses, duration of action: electrical-induced contraction of guinea-pig isolated trachea; for OT50 (onset time: time to reach 50% of the maximum inhibition of the contractile response) / RT50 (recovery time: time for 50% reversal of the maximum inhibition after terminating exposure): superfused guinea-pig trachea, electrical field stimulation, 10 μM; for OT50 (onset time: time to reach 50% of the maximum inhibition of the contractile response): mean and s.e. mean of three observations; for RT50 (recovery time: time for 50% reversal of the maximum inhibition after terminating exposure): washout
Experimental: Superfusion of guinea-pig tracheal rings was performed according to a previously described method (Coleman et al. Pulmonary Pharmacology 9 107-117 (1996)). Briefly, guinea-pig tracheal preparations were cut into rings and then opened by sectioning the ring opposite the smooth muscle and suspended between two platinum electrodes under 1 g tension. The tissues were superfused at a rate of from 1 to 3.25 ml/min with Krebs-Henseleit solution at 37° C. containing the cyclooxygenase inhibitor, indomethacin (5 μM) and bubbled with 95% O2 and 5% CO2. Tracheal preparations were allowed to equilibrate for 40 minutes before commencement of electrical stimulation, delivered as a 10 s train of square wave pulses at 3 Hz, 0.1 ms duration and 20V (approx 400 mamps) generated every 100 sec by means of physiological square wave-stimulator. The compounds of the present invention were superfused at a rate of 0.2 to 0.3 ml/min ad contractile responses to electrical field stimulation were recorded on a Macintosh computer using MacLab sor vare. The drug was prepared in DMSO and diluted in Krebs-Henseleit solution which yielded a final superfusion concentration of 0.05 to 0.1% DMSO.
The duration of action was determined and expressed as onset time (OT50) and recovery time (RT50).

PDE3 (human platelet) = target: T1, PDE3 (human platelet) (Homo sapiens, UniProt Q14432); assay: PDE3 inhibition; format: biochemical
T1 construct: (human platelet); from tissue; host or cells: human platelets

PDE4 (human neutrophil) = assay: PDE4 inhibition; format: biochemical
[5] = system: histamine induced bronchospasm; assay: Histamine induced bronchospasm, inhaled dry powder, guinea-pig; format: in vivo
Experimental: 1. The above compound was tested in a model of histamine induced bronchospasm. Conscious guinea-pigs were exposed to dry powder (micronised) of the compound. The drug was blended with lactose so that the final concentration was 0.25, 2.5 and 25%. At various times after exposure to drug the animals were anaesthetised and challenged with varying doses of histamine. Total airway resistance and mean arterial blood pressure were recorded.

[6] = system: mean arterial blood pressure; assay: Intravenous administration to urethane anaesthetised guinea-pigs, mean arterial blood pressure; format: in vivo, guinea-pig; details: 0.1 to 300 μg/kg
Experimental: 2. […] The compound was dissolved in DMSO then diluted with saline (there was evidence that the compound had come out of solution).

[7] = system: recruitment of eosinophils to the lungs; assay: Antigen induced eosinophilia in the ovalbumin sensitised guinea-pig; format: in vivo; details: 10 mg/kg orally 1 hour prior to antigen challenge, ovalbumin sensitised guinea-pigs

T1 sequence (Q14432 whole entry): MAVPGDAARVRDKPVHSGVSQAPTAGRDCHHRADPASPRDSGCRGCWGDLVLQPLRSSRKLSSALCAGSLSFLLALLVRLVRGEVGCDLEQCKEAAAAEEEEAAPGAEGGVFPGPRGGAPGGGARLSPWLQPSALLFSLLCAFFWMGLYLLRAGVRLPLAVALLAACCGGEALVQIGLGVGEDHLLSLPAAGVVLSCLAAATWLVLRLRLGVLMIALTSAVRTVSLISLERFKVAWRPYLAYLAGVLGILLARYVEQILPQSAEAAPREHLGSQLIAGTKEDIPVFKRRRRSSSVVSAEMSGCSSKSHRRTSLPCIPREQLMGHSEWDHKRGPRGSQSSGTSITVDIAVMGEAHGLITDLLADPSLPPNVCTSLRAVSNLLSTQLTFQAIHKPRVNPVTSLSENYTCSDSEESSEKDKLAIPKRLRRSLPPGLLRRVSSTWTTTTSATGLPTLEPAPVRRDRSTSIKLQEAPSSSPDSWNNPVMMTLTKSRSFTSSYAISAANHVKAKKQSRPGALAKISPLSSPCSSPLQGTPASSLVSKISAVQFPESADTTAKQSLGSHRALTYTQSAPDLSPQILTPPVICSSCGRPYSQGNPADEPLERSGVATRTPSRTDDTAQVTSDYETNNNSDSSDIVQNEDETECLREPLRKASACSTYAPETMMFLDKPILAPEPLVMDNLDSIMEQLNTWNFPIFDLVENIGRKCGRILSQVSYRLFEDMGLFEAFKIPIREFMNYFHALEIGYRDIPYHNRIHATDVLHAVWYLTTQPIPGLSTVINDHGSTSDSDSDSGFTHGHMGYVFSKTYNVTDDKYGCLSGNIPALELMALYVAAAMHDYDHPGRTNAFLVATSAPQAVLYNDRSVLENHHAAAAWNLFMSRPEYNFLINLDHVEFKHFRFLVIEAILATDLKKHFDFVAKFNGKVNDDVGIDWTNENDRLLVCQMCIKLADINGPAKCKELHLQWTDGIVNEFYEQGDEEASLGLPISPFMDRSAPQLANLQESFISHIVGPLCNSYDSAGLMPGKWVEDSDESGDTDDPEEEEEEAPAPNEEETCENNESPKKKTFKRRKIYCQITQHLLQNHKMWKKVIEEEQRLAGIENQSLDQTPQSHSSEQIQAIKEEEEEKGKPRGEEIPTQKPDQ

| SMILES | inhibition of contractile responses, duration of action [4] | OT50 (onset time: time to reach 50% of the maximum inhibition of the contractile response) [4] [min] | RT50 (recovery time: time for 50% reversal of the maximum inhibition after terminating exposure) [4] [min] | further results |
| --- | --- | --- | --- | --- |
| COc1ccc([C@H](Cc2ccncc2)c2ccccc2)cc1OC1CCCC1 [CDP 840] |  |  |  | IC50 ([1]; n = 6): 0.092 µM |
| COc1cc2c(cc1OC)-c1cc(Oc3c(C)cccc3C)nc(=O)n1CC2 [Example 1, 6,7-Dihydro-2-(2,6-dimethylphenoxy)-9,10-dimethoxy-4H-pyrimido-[6,1-a]isoquinolin-4-one] |  |  |  | inhibition of the contractile response to electrical field stimulation [2]: complete inhibition; IC50 [3]: 5.13 µM |
| COc1cc2c(cc1OC)-c1cc(Oc3c(C(C)C)cccc3C(C)C)nc(=O)n1CC2 [Example 2, 6,7-Dihydro-2-(2,6-diisopropylphenoxy)-9,10-dimethoxy-4H-pyrimido-[6,1-a]isoquinolin-4-one] | inhibit the contractile responses with a long duration of action | 24.9 ± 5.0 | >240 | inhibition of the contractile response to electrical field stimulation [2]: complete inhibition; IC50 [3]: 2.9 µM; IC50 (PDE3 (human platelet)): 0.107 µM; IC50 (PDE4 (human neutrophil)): 1.2 µM; IC50 ([1]; n = 6): 0.25 µM; protection against histamine induced bronchospasm (total airway resistance) ([5]; conscious guinea-pigs exposed to dry powder (25% in lactose)): significant protection against histamine induced bronchospasm; effect on mean arterial blood pressure ([5]; guinea-pigs, inhaled dry powder (25%)): without changing mean arterial blood pressure; effect on mean arterial blood pressure [6]: dose dependant reduction in mean arterial blood pressure; recruitment of eosinophils to the lungs following antigen challenge [7]: significantly inhibited |
| CCc1cccc(CC)c1Oc1cc2n(c(=O)n1)CCc1cc(OC)c(OC)cc1-2 [Example 3, 2-(2,6-diethylphenoxy)-6,7-dihydro-9,10-dimethoxy-4H-pyrimido-[6,1-a]isoquinolin-4-one] | inhibit the contractile responses with a long duration of action | 17 ± 1 | >240 |  |
| COc1cc2c(cc1OC)-c1cc(Oc3c(Cl)cccc3Cl)nc(=O)n1CC2 [Example 8, 2-(2,6-Dichlorophenoxy)-6,7-dihydro-9,10-dimethoxy-4H-pyrimido-[6,1-a]isoquinolin-4-one] |  |  |  | inhibition of the contractile response to electrical field stimulation [2]: complete inhibition; IC50 [3]: 8.22 µM |
| COc1cc2c(cc1OC)-c1cc(Oc3ccccc3CC(C)C)nc(=O)n1CC2 [Example 10, 9,10-Dimethoxy-2-(2-isobutylphenoxy)-6,7-dihydro-4H-pyrimido[6,1-a]isoquinolin-4-one] | inhibit the contractile responses with a long duration of action | 17.5 ± 1.25 | >300 |  |
| COc1cc2c(cc1OC)-c1cc(Oc3ccccc3C(C)(C)C)nc(=O)n1CC2 [Example 11, 2-(2-tert-butylphenoxy)-9,10-dimethoxy-6,7-dihydro-4H-pyrimido[6,1-a]isoquinolin-4-one] | inhibit the contractile responses with a long duration of action | 14.7 ± 1.33 | >300 |  |
| CCc1ccccc1Oc1cc2n(c(=O)n1)CCc1cc(OC)c(OC)cc1-2 [Example 12, 9,10-Dimethoxy-2-(2-ethylphenoxy)-6,7-dihydro-4H-pyrimido[6,1-a]isoquinolin-4-one] | inhibit the contractile responses with a long duration of action | 9.7 ± 0.6 | 263 |  |
| COc1cc2c(cc1OC)-c1cc(Oc3ccccc3C3CCCC3)nc(=O)n1CC2 [Example 13, 2-(2-Cyclopentylphenoxy)-9,10-dimethoxy-6.7-dihydro-4H-pyrimido[6,1-a]-isoquinolin-4-one] | inhibit the contractile responses with a long duration of action | 18.6 ± 1.5 | >300 |  |
| CN/C(=N\c1ccc(C2=NNC(=O)CC2C)cc1)NC#N (centres unmarked) [Siguazodan] |  |  |  | IC50 ([1]; unit printed in the cell beside the value): > 100 µM |
| COc1cc2c(cc1OC)-c1cc(=Nc3c(C)cc(C)cc3C)n(C)c(=O)n1CC2 [Trequinsin, 9,10-dimethoxy-3-methyl-2-mesitylimino-2,3,6,7-tetrahydro-4H-pyrimido[6,1-a]isoquinolin-4-one, reference compound] |  | 14 | 146 |  |
